The record followed here is US10329302B2, “Bicyclic-fused heteroaryl or aryl compounds” (Pfizer Inc., priority 2014, dated 2019).

For the first experiment, the target named is human IRAK4 kinase domain (aa 154-460) (Homo sapiens (Human), UniProt Q9NWZ3). The experiment can be described thus: IRAK4 Enzymatic DELFIA Assay, Protocol B.
Sequence of human IRAK4 kinase domain (aa 154-460) (Q9NWZ3 154-460): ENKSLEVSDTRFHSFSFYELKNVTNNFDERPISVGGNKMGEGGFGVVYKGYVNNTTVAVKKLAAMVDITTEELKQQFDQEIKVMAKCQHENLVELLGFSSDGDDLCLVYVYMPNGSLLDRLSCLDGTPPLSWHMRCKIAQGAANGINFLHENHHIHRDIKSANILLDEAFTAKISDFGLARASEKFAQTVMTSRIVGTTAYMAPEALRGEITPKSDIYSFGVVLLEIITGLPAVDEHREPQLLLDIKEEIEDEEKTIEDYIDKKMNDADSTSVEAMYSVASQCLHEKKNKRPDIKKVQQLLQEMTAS
Details: not given
Format: biochemical. From the text:
IRAK4 Enzymatic DELFIA Assay, Protocol B.
Take `CC(C)Oc1cc2c(OC3CC[C@@H]4CN(C(=O)CC#N)C[C@H]34)ccnc2cc1C(N)=O` (single isomer, unassigned) [Example 71]: inhibition was half-maximal at 153 nM (IC50).

For the compound `CC(C)Oc1cc2c(OC3CC4CCC3C4)ccnc2cc1C(N)=O` (centres unmarked) [Example 16, 4-(bicyclo[2.2.1]hept-2-yloxy)-6-(propan-2-yloxy)quinoline-7-carboxamide], the midpoint of inhibition, the IC50, lay at 386 nM.

For `CC(C)Oc1cc2c(OC3C4CC5C(C4)C53)ccnc2cc1C(N)=O` (centres unmarked) [Example 17, 6-(propan-2-yloxy)-4-(tricyclo[2.2.1.0~2,6~]hept-3-yloxy)quinoline-7-carboxamide], the IC50 (in general, the concentration needed to halve the response being measured) was determined as 476 nM.

Staying with this experiment, now noted: human IRAK4 kinase domain (aa 154-460), 0.6 mM ATP (KM); read-out: IRAK4 DELFIA Protocol B IC50.
Consider `CC(C)Oc1cc2c(OC3C[C@@H]4C[C@H]3CN(C(=O)CC#N)C4)ccnc2cc1C(N)=O` (stereo in doubt) [Example 92, 4-{[(1S,5S,6S)-3-(cyanoacetyl)-3-azabicyclo[3.2.1]oct-6-yl]oxy}-6-(propan-2-yloxy)quinoline-7-carboxamide], for which the IC50 amounted to 473 nM. Still for that read-out and setting: as for `CC(C)Oc1cc2c(OCC3CNC3)ccnc2cc1C(N)=O` [Example 1, 4-(azetidin-3-ylmethoxy)-6-(propan-2-yloxy)quinoline-7-carboxamide], the figure is 2910 nM; as for `CC(C)Oc1cc2c(O[C@@H]3C[C@H]4C[C@@H]3CN4)nccc2cc1C(N)=O` [Example 02, 1-[(1R,4R,5R)-2-azabicyclo[2.2.1]hept-5-yloxy]-7-(propan-2-yloxy)isoquinoline-6-carboxamide], 217 nM. Still for that read-out and setting: the figure for `CC(C)Oc1cc2c(OC[C@H]3CCCNC3)ccnc2cc1C(N)=O` [Example 2, 4-[(3S)-piperidin-3-ylmethoxy]-6-(propan-2-yloxy)quinoline-7-carboxamide] is 4500 nM; for `CC(C)Oc1cc2c(OC[C@@H]3CCCNC3)ccnc2cc1C(N)=O` [Example 3, 4-[(3R)-piperidin-3-ylmethoxy]-6-(propan-2-yloxy)quinoline-7-carboxamide] it is 2240 nM.

Take `CC(C)Oc1cc2c(OCC3CCNCC3)ccnc2cc1C(N)=O` [Example 4, 4-(piperidin-4-ylmethoxy)-6-(propan-2-yloxy)quinoline-7-carboxamide]: the IC50 was determined as 913 nM. Take `CC(C)Oc1cc2c(OC[C@H]3[C@@H]4CNC[C@@H]43)ccnc2cc1C(N)=O` [Example 5, 4-[(1R,5S,6r)-3-azabicyclo[3.1.0]hex-6-ylmethoxy]-6-(propan-2-yloxy)quinoline-7-carboxamide]: the IC50 is 323 nM. Turning to `CC(C)Oc1cc2c(OCC3COC3)ccnc2cc1C(N)=O` [Example 6, 4-(oxetan-3-ylmethoxy)-6-(propan-2-yloxy)quinoline-7-carboxamide], the IC50 came to 618 nM. Take `CC(C)Oc1cc2c(OCC3CCCC3)ccnc2cc1C(N)=O` [Example 7, 4-(cyclopentylmethoxy)-6-(propan-2-yloxy)quinoline-7-carboxamide]: the IC50 was 170 nM. Regarding `CC(C)Oc1cc2c(OC(C)C3CCC3)ccnc2cc1C(N)=O` (centres unmarked) [Example 8, 4-(1-cyclobutylethoxy)-6-(propan-2-yloxy)quinoline-7-carboxamide], the IC50 was found to be 834 nM. With `CC(C)Oc1cc2c(OCC3CCC3)ccnc2cc1C(N)=O` [Example 9, 4-(cyclobutylmethoxy)-6-(propan-2-yloxy)quinoline-7-carboxamide], the half-maximal inhibitory concentration (IC50) came out at 598 nM.

Consider `CC(C)Oc1cc2c(OCC3CCOC3)ccnc2cc1C(N)=O` (centres unmarked) [Example 10, 6-(propan-2-yloxy)-4-(tetrahydrofuran-3-ylmethoxy)quinoline-7-carboxamide], for which the IC50 stood at 752 nM.

Consider `CC(C)Oc1cc2c(OCC3CCCO3)ccnc2cc1C(N)=O` (centres unmarked) [Example 11, 6-(propan-2-yloxy)-4-(tetrahydrofuran-2-ylmethoxy)quinoline-7-carboxamide], for which the IC50 came to 3230 nM. As to `CC(C)Oc1cc2c(OCC3(C)COC3)ccnc2cc1C(N)=O` [Example 12, 4-[(3-methyloxetan-3-yl)methoxy]-6-(propan-2-yloxy)quinoline-7-carboxamide], the IC50 came to 1040 nM.

For `CC(C)Oc1cc2c(OCC3(C)CCC3)ccnc2cc1C(N)=O` [Example 13, 4-[(1-methylcyclobutyl)methoxy]-6-(propan-2-yloxy)quinoline-7-carboxamide], the IC50 was found to be 383 nM. Regarding `CC(C)Oc1cc2c(O[C@@H]3CC4CCC3C4)ccnc2cc1C(N)=O` (stereo partly drawn) [Example 14, 4-[(2R)-bicyclo[2.2.1]hept-2-yloxy]-6-(propan-2-yloxy)quinoline-7-carboxamide], the IC50 worked out at 231 nM. Turning to `CC(C)Oc1cc2c(OC[C@H]3CCCO3)ccnc2cc1C(N)=O` [Example 15, 6-(propan-2-yloxy)-4-[(2R)-tetrahydrofuran-2-ylmethoxy]quinoline-7-carboxamide], the IC50 came out at 2970 nM.

As to `CC(C)Oc1cc2c(OCC3COCO3)ccnc2cc1C(N)=O` (centres unmarked) [Example 18, 4-(1,3-dioxolan-4-ylmethoxy)-6-(propan-2-yloxy)quinoline-7-carboxamide], the IC50 turned out to be 507 nM.

In the case of `CC(C)Oc1cc2c(O[C@@H]3CC4CC[C@H]3C4)ccnc2cc1C(N)=O` [Example 19, 4-[(1S,2R)-bicyclo[2.2.1]hept-2-yloxy]-6-(propan-2-yloxy)quinoline-7-carboxamide], the IC50 stood at 354 nM.

Regarding `CC(C)Oc1cc2c(OC3CC[C@@H]4CNC[C@H]34)nccc2cc1C(N)=O` (stereo partly drawn) [Example 20, 1-[(3aR,6aS)-octahydrocyclopenta[c]pyrrol-4-yloxy]-7-(propan-2-yloxy)isoquinoline-6-carboxamide], the IC50 came out at 102 nM.

Consider `CC(C)Oc1cc2c(OC3CC[C@@H]4CNC[C@H]34)ccnc2cc1C(N)=O` (stereo partly drawn) [Example 21, 4-[(3aR,6aS)-octahydrocyclopenta[c]pyrrol-4-yloxy]-6-(propan-2-yloxy)quinoline-7-carboxamide], for which the IC50 amounted to 83 nM. Same read-out and setting: the figure for `CC(C)Oc1cc2c(OC[C@H]3CCN(C(=O)CC#N)C3)ccnc2cc1C(N)=O` [Example 22, 4-{[(3S)-1-(cyanoacetyl)pyrrolidin-3-yl]methoxy}-6-(propan-2-yloxy)quinoline-7-carboxamide] is 45 nM. In the case of `CC(C)Oc1cc2c(OCC3CCOC3)nccc2cc1C(N)=O` (centres unmarked) [Example 24, 7-(propan-2-yloxy)-1-(tetrahydrofuran-3-ylmethoxy)isoquinoline-6-carboxamide], the IC50 amounted to 492 nM.

On to `CC(C)Oc1cc2c(OCC3CCCCO3)nccc2cc1C(N)=O` (centres unmarked) [Example 25, 7-(propan-2-yloxy)-1-(tetrahydro-2H-pyran-2-ylmethoxy)isoquinoline-6-carboxamide], for which the IC50 turned out to be 1130 nM. As to `CC(C)Oc1cc2c(OCC3CCCS(=O)(=O)N3)nccc2cc1C(N)=O` (centres unmarked) [Example 27, 1-[(1,1-dioxido-1,2-thiazinan-3-yl)methoxy]-7-(propan-2-yloxy)isoquinoline-6-carboxamide], the IC50 turned out to be 2480 nM. On to `CC(C)Oc1cc2c(OC[C@H]3CCCNC3)nccc2cc1C(N)=O` [Example 28, 1-[(3S)-piperidin-3-ylmethoxy]-7-(propan-2-yloxy)isoquinoline-6-carboxamide], for which the IC50 came out at 1320 nM. As to `CC(C)Oc1cc2c(OCC3COC(=O)N3C)nccc2cc1C(N)=O` (centres unmarked) [Example 29, 1-[(3-methyl-2-oxo-1,3-oxazolidin-4-yl)methoxy]-7-(propan-2-yloxy)isoquinoline-6-carboxamide], the IC50 amounted to 76 nM. Consider `CC(C)Oc1cc2c(OC[C@H]3CCCO3)nccc2cc1C(N)=O` [Example 30, 7-(propan-2-yloxy)-1-[(2R)-tetrahydrofuran-2-ylmethoxy]isoquinoline-6-carboxamide], for which the IC50 was found to be 2440 nM. Same read-out and setting: the figure for `CC(C)Oc1cc2c(OC[C@@H]3CCCN3C)nccc2cc1C(N)=O` [Example 31, 1-{[(2S)-1-methylpyrrolidin-2-yl]methoxy}-7-(propan-2-yloxy)isoquinoline-6-carboxamide] is 2620 nM; for `CC(=O)N1CCC(COc2nccc3cc(C(N)=O)c(OC(C)C)cc23)CC1` [Example 33, 1-[(1-acetylpiperidin-4-yl)methoxy]-7-(propan-2-yloxy)isoquinoline-6-carboxamide] it is 2860 nM; for `CO[C@H]1CNC[C@@H]1COc1nccc2cc(C(N)=O)c(OC(C)C)cc12` [Example 34, 1-{[(3R,4R)-4-methoxypyrrolidin-3-yl]methoxy}-7-(propan-2-yloxy)isoquinoline-6-carboxamide] it is 483 nM. Regarding `CC(C)Oc1cc2c(OCC3CNC(=O)O3)nccc2cc1C(N)=O` (centres unmarked) [Example 35, 1-[(2-oxo-1,3-oxazolidin-5-yl)methoxy]-7-(propan-2-yloxy)isoquinoline-6-carboxamide], the IC50 was 16 nM. As to `CC(C)Oc1cc2c(OCC3CCOCC3)nccc2cc1C(N)=O` [Example 36, 7-(propan-2-yloxy)-1-(tetrahydro-2H-pyran-4-ylmethoxy)isoquinoline-6-carboxamide], the IC50 came out at 735 nM. Turning to `CC(C)Oc1cc2c(OC[C@@H]3CNCCO3)nccc2cc1C(N)=O` [Example 37, 1-[(2S)-morpholin-2-ylmethoxy]-7-(propan-2-yloxy)isoquinoline-6-carboxamide], the IC50 is 3520 nM. In the case of `CC(C)Oc1cc2c(OCC3(F)CCNCC3)nccc2cc1C(N)=O` [Example 38, 1-[(4-fluoropiperidin-4-yl)methoxy]-7-(propan-2-yloxy)isoquinoline-6-carboxamide], the IC50 was 4640 nM.

With `CC(C)Oc1cc2c(OCC3CNCCO3)nccc2cc1C(N)=O` (centres unmarked) [Example 39, 1-(morpholin-2-ylmethoxy)-7-(propan-2-yloxy)isoquinoline-6-carboxamide], the IC50 came to 386 nM. For the compound `CC(C)Oc1cc2c(OC[C@]34CNC[C@H]3C4)nccc2cc1C(N)=O` [Example 40, 1-[(1S,5S)-3-azabicyclo[3.1.0]hex-1-ylmethoxy]-7-(propan-2-yloxy)isoquinoline-6-carboxamide], the IC50 was found to be 109 nM. Still for that read-out and setting: the figure for `CC(C)Oc1cc2c(OC[C@H]3CCCN3)nccc2cc1C(N)=O` [Example 41, 7-(propan-2-yloxy)-1-[(2R)-pyrrolidin-2-ylmethoxy]isoquinoline-6-carboxamide] is 2350 nM.
